Measured values: patent publication US20240027453A1, “METHOD FOR DETECTION AND QUANTITATIVE MONITORING OF INFECTIONS WITH HERPESVIRUSES” (The Trustees of Princeton University, priority 2020, published 2024)
Where two headings read alike, the source gives them in different places.

System: HCMV
Type: cell-based
Procedure: In example herpesvirus PRM assay methods shown herein, cell pellets were lysed in 2% SDS, 100 mM NaCl, 0.5 mM EDTA, 50 mM Tris, pH 8.2, and 50 μg of protein was reduced and alkylated with 25 mM TCEP and 50 mM CAM respectively for 20 min at 70° C. Proteins were then precipitated via methanol chloroform precipitation (Wessel & Flugg, Anal Biochem. 138(1):141-143, 1984), resuspended in 50 mM HEPES, pH 8.2 and digested overnight with trypsin (50:1 protein:enzyme w/w ratio). Digested peptides were desalted by SDB-RPS StageTip as previously described (Lum et al., Cell Syst., 7(6):[…], 2018; Greco et al., Methods Mol Biol 1410:39-63, 2016; Federspiel & Cristea, Methods Mol Biol., 1977:115-143, 2019).
Peptides (1.0 μg on column) were analyzed by LC-MS/MS using a Dionex Ultimate 3000 UHPLC coupled online to an EASYSpray ion source and a Q Exactive HF. Peptides were separated on an EASYSpray C18 column (75 μm×25 cm) heated to 50° C. using a linear gradient of 5% B to 32% B over 60 min at a flow rate of 250 nL/min and were ionized at 1.7 kv. Mobile phase A consisted of 0.1% FA in H2O and mobile phase B consisted of 0.1% FA, 2.9% H2O in ACN.
The PRM method was controlled by a peptide inclusion list with retention time windows of 6 min for selected precursor ions.
The PRM assay was developed and analyzed using the open-source software Skyline (Maclean et al., Bioinformatics 26(7):966-968, 2010). Summed area under the curve of 3-4 transitions per peptide was used for quantitation. Targeted peptides were normalized to host protein loading control peptides. Peptide values for each sample were scaled to the average of each peptide across all runs. The average of multiple peptides was used as the inferred value for the protein measurement when more than one peptide was quantified (Federspiel et al., PLoS Biol. 17(9):e3000437. Doi: 10.1371/journal.pbio.3000437). PRM quantitation data were graphed using the Python Seaborn and Matplotlib libraries.
MRC5 primary human fibroblasts (HFs) (ATCC CCL-171) were used as the model system for HSV-1 and HCMV infections and were cultured in complete growth medium (DMEM supplemented with 10% fetal bovine serum and 1% penicillin-streptomycin antibiotics) at 37° C. and 5% CO2. iSLK.219 cells harboring latent KSHV (a gift from Dr. Britt Glaunsinger, University of California, Berkeley) were grown in complete growth medium supplemented with 500 μg/ml hygromycin (ThermoFisher Scientific, 10687010) at 37° C. and 5% CO2. All cells were used for experiments within a maximum of 10 passages.
Wild type HSV-1 strain 17+ (a gift from Beate Sodeik, Hannover Medical School, Hannover, Germany) was propagated as previously described (Diner et al., 2015). Briefly, PO stocks were generated by electroporating pBAC-HSV-1 into U-2 OS cells. […] In a similar manner, wild type HCMV strain AD169 was produced from BAC electroporation into HFs and working stocks were propagated by infecting HFs at a low level. In both cases, cell-associated virus was released by sonication, combined with supernatant virus, then concentrated by ultracentrifugation (20,000 rpm, 2 hours, 4° C. with SW28 swinging bucket rotor [Beckman Coulter]) over a 10% ficoll (HSV-1) or 20% sorbitol (HCMV) cushion. Virus stock titers were determined by plaque assay for HSV-1 or tissue culture infectious dose (TCID50) for HCMV and infections were performed at a multiplicity of infection (MOI) of 3.
12 hours prior to virus infection or reactivation, cells were treated with either the small molecule drug or DMSO/PBS control at an equivalent volume. […] For infection cycles lasting longer than 24 hours, small molecule drugs were re-added to the cell culture medium every 24 hours. Upon collection, cells were rinsed with PBS, scraped into a microcentrifuge tube, pelleted by centrifugation, and rinsed again with PBS.

## Nc1ccn(C[C@@H](CO)OCP(=O)(O)O)c(=O)n1 [CDV, cidofovir]
  HCMV late gene expression: reduction
1 μM
  HCMV protein levels across all temporal classes of gene expression: substantial decreases
  impact on HCMV IE genes compared to other gene classes: relatively less impacted
1 μM, across all time points
  decrease of HCMV protein UL54: less than 20%
1 μM, by 72 HPI, in more than 85% of the proteins monitored
  decrease in HCMV protein levels compared to PBS control: at least 35%
1 μM, by 120 HPI
  decrease in abundance of HCMV IE protein UL122: ~70%
DE, timepoint 24
  DBP (P17147) protein, numerical value of heatmap FIG. 6C: 0.04283
  HELI (P16736) protein, numerical value of heatmap FIG. 6C: 0.1024
  NEC2 (P16791) protein, numerical value of heatmap FIG. 6C: 0.0159
  RIR1 (P16782) protein, numerical value of heatmap FIG. 6C: 0.04961
  UL26 (P16762) protein, numerical value of heatmap FIG. 6C: 0.04954
  UL32 (P08318) protein, numerical value of heatmap FIG. 6C: 0.01616
  UL34 (P16812) protein, numerical value of heatmap FIG. 6C: 0.05376
  UL38 (P16779) protein, numerical value of heatmap FIG. 6C: 0.5007
  UL44 (P16790) protein, numerical value of heatmap FIG. 6C: 0.0325
  UL54 (P08546) protein, numerical value of heatmap FIG. 6C: 0.2154
  UL71 (P16823) protein, numerical value of heatmap FIG. 6C: 0.2978
  UL78 (P16751) protein, numerical value of heatmap FIG. 6C: 0.1834
  UL84 (P16727) protein, numerical value of heatmap FIG. 6C: 0.0827
  UL96 (P16787) protein, numerical value of heatmap FIG. 6C: 0.339
  UL97 (P16788) protein, numerical value of heatmap FIG. 6C: 0.1685
  UL98 (P16789) protein, numerical value of heatmap FIG. 6C: 0.1785
  UL102 (P16827) protein, numerical value of heatmap FIG. 6C: 0.2917
  UL112/UL113 (P17151) protein, numerical value of heatmap FIG. 6C: 0.3345
  UL114 (P16769) protein, numerical value of heatmap FIG. 6C: 0.3025
  UL119/UL118 (P16739) protein, numerical value of heatmap FIG. 6C: 0.07541
  UL128 (P16837) protein, numerical value of heatmap FIG. 6C: 0.1472
  US8 (P09730) protein, numerical value of heatmap FIG. 6C: 0.3317
  US9 (P09729) protein, numerical value of heatmap FIG. 6C: 0.2308
  US12 (P09721) protein, numerical value of heatmap FIG. 6C: 0.6397
  US13 (P09720) protein, numerical value of heatmap FIG. 6C: 0.2174
  US14 (P09719) protein, numerical value of heatmap FIG. 6C: 0.1903
  US18 (P69334) protein, numerical value of heatmap FIG. 6C: 0.3161
  US22 (P09722) protein, numerical value of heatmap FIG. 6C: 0.1701
  US23 (P09701) protein, numerical value of heatmap FIG. 6C: 0.3435
  US24 (P09700) protein, numerical value of heatmap FIG. 6C: 0.2973
  gB (P06473) protein, numerical value of heatmap FIG. 6C: 0.05133
  sp|P09710|IR01_HCMVA (P09710) protein, numerical value of heatmap FIG. 6C: 0.1514
DE, timepoint 48
  DBP (P17147) protein, numerical value of heatmap FIG. 6C: 0.2386
  HELI (P16736) protein, numerical value of heatmap FIG. 6C: 0.4106
  NEC2 (P16791) protein, numerical value of heatmap FIG. 6C: 0.08567
  RIR1 (P16782) protein, numerical value of heatmap FIG. 6C: 0.1065
  TRM1 (P16724) protein, numerical value of heatmap FIG. 6C: 0.1188
  UL4 (P17146) protein, numerical value of heatmap FIG. 6C: 0.07447
  UL26 (P16762) protein, numerical value of heatmap FIG. 6C: 0.1073
  UL32 (P08318) protein, numerical value of heatmap FIG. 6C: 0.03113
  UL34 (P16812) protein, numerical value of heatmap FIG. 6C: 0.1018
  UL38 (P16779) protein, numerical value of heatmap FIG. 6C: 0.7494
  UL44 (P16790) protein, numerical value of heatmap FIG. 6C: 0.09556
  UL48 (P16785) protein, numerical value of heatmap FIG. 6C: 0.04333
  UL54 (P08546) protein, numerical value of heatmap FIG. 6C: 0.6243
